Assay results from US8088806B2 (Achillion Pharmaceuticals, Inc., priority 2005, dated 2012).

What follows are compounds tested on HCV replicon (assay: Replicon based assay of HCV replication inhibition (NPT ELISA)). Details: Hepatitis C virus, Huh-7, 72 h, Table I; Huh-7 HCV replicon-containing cells, three days; read-out: Activity.
Assay type: cell-based, Hepatitis C virus
Experimental: Compounds claimed herein are tested for the ability to inhibit viral replication of the Hepatitis C replicon in cultured cells in which the HCV replicon construct has been incorporated. The HCV replicon system was described by Bartenschlager, et. al (Science, 285, pp. 110-113 (1999)). The replicon system is predictive of in vivo anti-HCV activity; compounds that are active in humans uniformly evidence activity in the replicon assay.
In this assay HCV replicon containing cells are treated with different concentrations of the test compound to ascertain the ability of the test compound to suppress replication of the HCV replicon. As a positive control, HCV replicon-containing cells are treated with different concentrations of interferon alpha, a known inhibitor of HCV replication. The replicon assay system includes Neomycin Phosphotransferase (NPT) as a component of the replicon itself in order to detect the transcription of replicon gene products in the host cell. Cells in which the HCV replicon is actively replicating have high levels of NPT; the level of NPT is proportional to HCV replication. […] The NPT level of each sample is measured using a captured ELISA.
A protocol for testing compounds for the ability to inhibit viral replication of the Hepatitis C replicon cultured cells in which the replicon construct has been incorporated, follows.
The HCV replicon contains, 5′-3′, the HCV-IRES, the neomycin phosphotransferase (neo) gene, the IRES of encephalomyocarditis virus, which directs translation of HCV sequences NS3 to NS5B, and the 3′-NTR. The sequence of the HCV replicon has been deposited in GenBank (Accession no. AJ242652).
The replicon is transfected into Huh-7 cells using standard methods such as electroporation.
The equipment and materials include, but are not limited to, Huh-7 HCV replicon-containing cells, maintenance media (DMEM (Dulbecco's modified Eagle media) supplemented with 10% FBS, L-glutamine, non-essential amino acids, penicillin (100 units/ml), streptomycin (100 micrograms/ml), and 500 micrograms/ml of Geneticin (G418), screening media (DMEM supplemented with 10% FBS, L-glutamine, non-essential amino acids, penicillin (100 units/ml) and streptomycin (100 micrograms/ml)), 96 well tissue culture plates (flat bottom), 96 well plates (U bottom for drug dilution), Interferon alpha for positive control, fixation reagent (such as methanol: acetone), primary antibody (rabbit anti-NPTII), secondary antibody: Eu-N1l, and enhancement solution.
The cells are then seeded onto 96-well plates at a density of 6000-7500 cells/100 microliters/well (6-7.5×10^5 cells/10 ml/plate). The plates are then incubated at 37° C. in a 5% CO2 incubator.
HCV replicon-containing cells are rinsed with once PBS once; 2 mls of trypsin are then added. Cells are incubated at 37° C. in a 5% CO2 incubator for 3-5 minutes. 10 mls of complete medium is added to stop the reaction. Cells are blown gently, put into a 15 ml tube, and spun at 1200 rpm for four minutes. The trypsin/medium solution is removed and 5 mls of medium (500 ml DMEM (high glucose)) from BRL catalog #12430-054; 50 mls 10% FBS, 5% Geneticin G418 (50 mg/ml, BRL catalog #10131-035), 5 ml MEM non-essential amino acids (100×BRL #11140-050) and 5 ml pen-strep (BRL # 15140-148) is added. The cells and media are mixed carefully
Cells are plated with screening medium (500 ml DMEM (BRL #21063-029), 50 ml FBS (BRL #10082-147) and 5 ml MEM non-essential amino acid (BRL #11140-050) at 6000-7500 cells/100 μl/well of 96 well plate (6-7.5×10^5 cells/10 ml/plate). Plates are placed into 37° C. 5% CO2 incubator overnight.
The following morning, drugs (test compounds or interferon alpha) are diluted in 96 well U bottom plates with media or DMSO/media, depending on the final concentration chosen for screening. Generally for 6 concentrations of each test compounds ranging from 10 micromolar to 0.03 micromolar are applied. […]

Structure (SMILES) | EC50 [µM]
CCCCCOc1ccc(Nc2nccs2)cc1C(F)(F)F [compound 1, N-(3-(trifluoromethyl)-4-(pentyloxy)phenyl)thiazol-2-amine] | < 1
CCCCCOc1ccc(Nc2nc(-c3ccc(F)cc3)cs2)cc1C(F)(F)F [compound 2, N-(3-(trifluoromethyl)-4-(pentyloxy)phenyl)-4-(4-fluorophenyl)thiazol-2-amine] | < 1
CCCCCOc1ccc(Nc2nc(-c3ccc(OC(F)F)cc3)cs2)cc1C(F)(F)F [compound 4, 4-(4-(difluoromethoxy)phenyl)-N-(3-(trifluoromethyl)-4-(pentyloxy)phenyl)thiazol-2-amine] | < 1
CCCCCOc1ccc(Nc2nc(C(Cc3ccccc3)NS(=O)(=O)c3ccc(C)cc3)cs2)cc1C(F)(F)F (stereo not shown) [compound 6, N-(3-(trifluoromethyl)-4-(pentyloxy)phenyl)-4-(2-phenyl-1-(tosylamino)ethyl)thiazol-2-amine] | 1 to 10
CCCCCOc1ccc(Nc2nc(-c3cccnc3)cs2)cc1C(F)(F)F [compound 7, N-(3-(trifluorometbyl)-4-(pentyloxy)phenyl)-4-(pyridin-3-yl)thiazol-2-amine] | < 1
CCCCCOc1ccc(Nc2nc(-c3ccc(N4CCCC4)cc3)cs2)cc1C(F)(F)F [compound 8, N-(3-(trifluoromethyl)-4-(pentyloxy)phenyl)-4-(4-(pyrrolidin-1-yl)phenyl)thiazol-2-amine] | < 1
CCCCCOc1ccc(Nc2ncc(Br)s2)cc1C(F)(F)F [compound 9, 5-bromo-N-(3-(trifluoromethyl)-4-(pentyloxy)phenyl)thiazol-2-amine] | < 1
CCCCCOc1ccc(Nc2nc(C(=O)O)cs2)cc1C(F)(F)F [compound 10, 2-(3-(trifluoromethyl)-4-(pentyloxy)phenylamino)thiazole-4-carboxylic acid] | > 10
CCCCCOc1ccc(Nc2nc(C(=O)Nc3ccc(Cl)cc3)cs2)cc1C(F)(F)F [compound 11, 2-(3-(trifluoromethyl)-4-(pentyloxy)phenylamino)-N-(4-chlorophenyl)thiazole-4-carboxamide] | > 10
CCCCCOc1ccc(Nc2nc(-c3ccc(F)cc3)c(C)s2)cc1C(F)(F)F [compound 12, N-(3-(trifluoromethyl)-4-(pentyloxy)phenyl)-4-(4-fluorophenyl)-5-methylthiazol-2-amine] | < 1
CCCCCOc1ccc(Nc2csc(-c3cccnc3)n2)cc1C(F)(F)F [compound 13, N-(3-(trifluoromethyl)-4-(pentyloxy)phenyl)-2-(pyridin-3-yl)thiazol-4-amine] | > 10
CCCCCOc1ccc(Nc2nc(C(=O)Nc3cccnc3)cs2)cc1C(F)(F)F [compound 14, 2-(3-(trifluoromethyl)-4-(pentyloxy)phenylamino)-N-(pyridin-3-yl)thiazole-4-carboxamide] | < 1
CCCCCOc1ccc(Nc2nc(C(=O)Nc3ccc(C#N)cc3)cs2)cc1C(F)(F)F [compound 15, 2-(3-(trifluoromethyl)-4-(pentyloxy)phenylamino)-N-(4-cyanophenyl)thiazole-4-carboxamide] | > 10
CCCCCOc1ccc(Nc2nc(C(=O)Nc3ccc(OC)cc3)cs2)cc1C(F)(F)F [compound 16, 2-(3-(trifluoromethyl)-4-(pentyloxy)phenylamino)-N-(4-methoxyphenyl)thiazole-4-carboxamide] | > 10
CCCCCOc1ccc(Nc2nc(C(=O)Nc3ccc(C(C)(C)C)cc3)cs2)cc1C(F)(F)F [compound 17, 2-(3-(trifluoromethyl)-4-(pentyloxy)phenylamino)-N-(4-tert-butylphenyl)thiazole-4-carboxamide] | > 10
CCCCCOc1ccc(Nc2nc(C(N)=O)cs2)cc1C(F)(F)F [compound 18, 2-(3-(trifluoromethyl)-4-(pentyloxy)phenylamino)thiazole-4-carboxamide] | < 1
CCCCCc1ccc(Nc2nc(-c3ccc(F)cc3)cs2)cc1 [compound 19, 4-(4-fluorophenyl)-N-(4-pentylphenyl)thiazol-2-amine] | < 1

Structure (SMILES) | EC50 [µM]
CCCCCc1ccc(Nc2nc(-c3ccc(Cl)cc3)cs2)cc1 [compound 20, 4-(4-chlorophenyl)-N-(4-pentylphenyl)thiazol-2-amine] | < 1
CCCCCOc1ccc(Nc2nc(-c3ccc(F)cc3)cs2)cc1 [compound 21, 4-(4-fluorophenyl)-N-(4-(pentyloxy)phenyl)thiazol-2-amine] | < 1
CCCCCc1ccc(Nc2nc(-c3ccc(Cl)c(Cl)c3)cs2)cc1 [compound 22, 4-(3,4-dichlorophenyl)-N-(4-pentylphenyl)thiazol-2-amine] | < 1
CCCCCOc1ccc(Nc2nc(-c3ccc(Cl)c(Cl)c3)cs2)cc1 [compound 24, 4-(3,4-dichlorophenyl)-N-(4-(pentyloxy)phenyl)thiazol-2-amine] | < 1
CCCCCOc1ccc(Nc2nc(-c3ccc(Cl)cc3)cs2)cc1 [compound 26, 4-(4-chlorophenyl)-N-(4-(pentyloxy)phenyl)thiazol-2-amine] | < 1
Fc1ccc(-c2csc(Nc3cccc(OCc4ccccc4)c3)n2)cc1 [compound 27, N-(3-(benzyloxy)phenyl)-4-(4-fluorophenyl)thiazol-2-amine] | < 1
Clc1ccc(-c2csc(Nc3cccc(OCc4ccccc4)c3)n2)cc1Cl [compound 28, N-(3-(benzyloxy)phenyl)-4-(3,4-dichlorophenyl)thiazol-2-amine] | < 1
Clc1ccc(-c2csc(Nc3cccc(OCc4ccccc4)c3)n2)cc1 [compound 30, N-(3-(benzyloxy)phenyl)-4-(4-chlorophenyl)thiazol-2-amine] | < 1
Fc1ccc(-c2csc(Nc3cccc(Oc4ccccc4)c3)n2)cc1 [compound 31, 4-(4-fluorophenyl)-N-(3-phenoxyphenyl)thiazol-2-amine] | < 1
Clc1ccc(-c2csc(Nc3cccc(Oc4ccccc4)c3)n2)cc1Cl [compound 32, 4-(3,4-dichlorophenyl)-N-(3-phenoxyphenyl)thiazol-2-amine] | < 1
Clc1ccc(-c2csc(Nc3cccc(Oc4ccccc4)c3)n2)cc1 [compound 34, 4-(4-chlorophenyl)-N-(3-phenoxyphenyl)thiazol-2-amine] | < 1
Fc1ccc(-c2csc(Nc3cccc(Cc4ccccc4)c3)n2)cc1 [compound 35, N-(3-benzylphenyl)-4-(4-fluorophenyl)thiazol-2-amine] | > 10
Clc1ccc(-c2csc(Nc3cccc(Cc4ccccc4)c3)n2)cc1Cl [compound 36, N-(3-benzylphenyl)-4-(3,4-dichlorophenyl)thiazol-2-amine] | < 1
Clc1ccc(-c2csc(Nc3cccc(Cc4ccccc4)c3)n2)cc1 [compound 38, N-(3-benzylphenyl)-4-(4-chlorophenyl)thiazol-2-amine] | < 1
Fc1ccc(-c2csc(Nc3ccc(Cc4ccccc4)cc3)n2)cc1 [compound 39, N-(4-benzylphenyl)-4-(4-fluorophenyl)thiazol-2-amine] | > 10
Clc1ccc(-c2csc(Nc3ccc(Cc4ccccc4)cc3)n2)cc1Cl [compound 40, N-(4-benzylphenyl)-4-(3,4-dichlorophenyl)thiazol-2-amine] | > 10

Same assay, conditions: Table I; Huh-7 HCV replicon-containing cells, three days; read-out: Activity

Structure (SMILES) | EC50 [µM]
CCCCCOc1ccc(Nc2nc(-c3ccc(Cl)cc3)cs2)cc1C(F)(F)F [compound 3] | < 1
